Where two headings read alike, the source gives them in different places.

Experimental findings from US10745382B2 (BRISTOL-MYERS SQUIBB COMPANY, priority 2015, dated 2020) are described below.

The assay has as its target T1, PD-1/PD-L1 (Homo sapiens, UniProt Q9NZQ7).
T1 construct: made in house; host or cells: HEK293T
The experiment in a line: PD-1/PD-L1 Homogenous Time-Resolved Fluorescence (HTRF) binding assay. The settings on record: PD-L1-His 10 nM, PD-1-Ig 20 nM, read-out: Range or IC50. The method, boiled down: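 Additional pairs run were PD-1-Ig with PD-L2-His (20 & 5 nM) and CD80-His with PD-L1-Ig (100 & 10 nM), all human proteins. Buffer: dPBS plus 0.1% BSA, 0.05% Tween-20; time-resolved FRET read-out via 1 nM Eu-cryptate anti-Ig and 20 nM APC anti-His, final concentrations.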
On the technique in general: Time-resolved FRET reads energy transfer from a long-lived donor to a nearby acceptor.

T1 sequence (Q9NZQ7 with tags, fused parts or gaps): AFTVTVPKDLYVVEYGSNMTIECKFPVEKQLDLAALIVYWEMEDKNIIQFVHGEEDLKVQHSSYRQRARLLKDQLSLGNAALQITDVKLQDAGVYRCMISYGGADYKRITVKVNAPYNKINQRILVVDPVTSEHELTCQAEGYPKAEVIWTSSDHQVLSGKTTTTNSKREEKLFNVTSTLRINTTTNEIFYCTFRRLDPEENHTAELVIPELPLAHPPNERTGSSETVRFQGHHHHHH

Usually IC50 stands for the concentration that inhibits the measured activity by half. In the case of `Cc1ccccc1-c1cccc(COc2cc(OCc3cncc(C#N)c3)c(CN[C@](C)(CO)C(=O)O)cc2Cl)c1C` [Example 3022, (R)-2-((5-chloro-2-((5-cyanopyridin-3-yl)methoxy)-4-((2,2′-dimethyl-[1,1′-biphenyl]-3-yl)methoxy)benzyl)amino)-3-hydroxy-2-methylpropanoic Acid], the IC50 (value given as range class) is 0.21 to 10 nM. As to `Cc1ccccc1-c1cccc(COc2cc(OCc3cncc(C#N)c3)c(CN3CCCC[C@H]3C(=O)O)cc2Cl)c1C` [Example 3023, (S)-1-(5-chloro-2-((5-cyanopyridin-3-yl)methoxy)-4-((2,2′-dimethyl-[1,1′-biphenyl]-3-yl)methoxy)benzyl)piperidine-2-carboxylic Acid], the IC50 (value given as range class) lay in the range of 0.21 to 10 nM. The same measure, in the same setting: with `COc1c(COc2cc(OCc3cncc(C#N)c3)c(CN[C@](C)(CO)C(=O)O)cc2Cl)cccc1-c1cccc(OCCCN2CC[C@@H](O)C2)c1C` [Example 3025, (R)-2-((5-chloro-2-((5-cyanopyridin-3-yl)methoxy)-4-((3′-(3-((R)-3-hydroxypyrrolidin-1-yl)propoxy)-2-methoxy-2′-methyl-[1,1′-biphenyl]-3-yl)methoxy)benzyl)amino)-3-hydroxy-2-methylpropanoic Acid] the figure was 0.21 to 10 nM. Same read-out and setting: with `Cc1cc(COc2cc(OCc3cncc(C#N)c3)c(CN[C@](C)(CO)C(=O)O)cc2Cl)c(C)c(-c2cccc(OCCCN3CC[C@@H](O)C3)c2C)c1` [Example 3026, (R)-2-((5-chloro-2-((5-cyanopyridin-3-yl)methoxy)-4-((3′-(3-((R)-3-hydroxypyrrolidin-1-yl)propoxy)-2,2′,5-trimethyl-[1,1′-biphenyl]-3-yl)methoxy)benzyl)amino)-3-hydroxy-2-methylpropanoic Acid, 2TFA] the figure was 0.21 to 10 nM.

With `Cc1ccc(OCCCN2CC[C@@H](O)C2)c(C)c1-c1cccc(COc2cc(OCc3cncc(C#N)c3)c(C=O)cc2Cl)c1C` [Example 3027, 5-((4-chloro-2-formyl-5-((3′-(3-((R)-3-hydroxypyrrolidin-1-yl)propoxy)-2,2′,6′-trimethyl-[1,1′-biphenyl]-3-yl)methoxy)phenoxy)methyl)nicotinonitrile], the half-maximal inhibitory concentration (IC50) (value given as range class) is 10 to 100 nM. On to `Cc1ccc(OCCCN2CC[C@@H](O)C2)c(C)c1-c1cccc(COc2cc(OCc3cncc(C#N)c3)c(CN[C@@](C)(CO)C(=O)O)cc2Cl)c1C` [Example 3028, (2S)-2-((5-chloro-2-((5-cyanopyridin-3-yl)methoxy)-4-((3′-(3-((R)-3-hydroxypyrrolidin-1-yl)propoxy)-2,2′,6′-trimethyl-[1,1′-biphenyl]-3-yl)methoxy)benzyl)amino)-3-hydroxy-2-methylpropanoic Acid], for which the IC50 (value given as range class) was in the range of 0.21 to 10 nM.

`Cc1ccc(OCCCN2CC[C@@H](O)C2)c(C)c1-c1cccc(COc2cc(OCc3cncc(C#N)c3)c(CN[C@](C)(CO)C(=O)O)cc2Cl)c1C` [Example 3029, (2R)-2-((5-chloro-2-((5-cyanopyridin-3-yl)methoxy)-4-((3′-(3-((R)-3-hydroxypyrrolidin-1-yl)propoxy)-2,2′,6′-trimethyl-[1,1′-biphenyl]-3-yl)methoxy)benzyl)amino)-3-hydroxy-2-methylpropanoic Acid]: the IC50 (value given as range class) lay in the range of 0.21 to 10 nM. In the case of `Cc1ccc(OCCCN2CC[C@@H](O)C2)c(C)c1-c1cccc(COc2cc(OCc3cncc(C#N)c3)c(CN3CCCC[C@H]3C(=O)O)cc2Cl)c1C` [Example 3030, (2S)-1-(5-chloro-2-((5-cyanopyridin-3-yl)methoxy)-4-((3′-(3-((R)-3-hydroxypyrrolidin-1-yl)propoxy)-2,2′,6′-trimethyl-[1,1′-biphenyl]-3-yl)methoxy)benzyl)piperidine-2-carboxylic Acid], the IC50 (value given as range class) fell in the range of 0.21 to 10 nM. As for `Cc1ccc(OCCCN2CC[C@@H](O)C2)c(C)c1-c1cccc(COc2cc(OCc3cncc(C#N)c3)c(CN[C@@H](CO)C(=O)O)cc2Cl)c1C` [Example 3031, (2S)-2-((5-chloro-2-((5-cyanopyridin-3-yl)methoxy)-4-((3′-(3-((R)-3-hydroxypyrrolidin-1-yl)propoxy)-2,2′,6′-trimethyl-[1,1′-biphenyl]-3-yl)methoxy)benzyl)amino)-3-hydroxypropanoic Acid], the IC50 (value given as range class) lay within 0.21 to 10 nM. On to `COc1cc(OCc2cccc(-c3cccc(OCCCN4CC[C@@H](O)C4)c3C)c2C)c(Cl)cc1C=O` [Example 3032, (R)-5-chloro-4-((3′-(3-(3-hydroxypyrrolidin-1-yl)propoxy)-2,2′-dimethyl-[1,1′-biphenyl]-3-yl)methoxy)-2-methoxybenzaldehyde], for which the IC50 (value given as range class) was in the range of 100 to 2000 nM. Still for that read-out and setting: with `COc1cc(OCc2cccc(-c3cccc(OCCCN4CC[C@@H](O)C4)c3C)c2C)c(Cl)cc1CN[C@@](C)(CO)C(=O)O` [Example 3033, (2S)-2-((5-chloro-4-((3′-(3-((R)-3-hydroxypyrrolidin-1-yl)propoxy)-2,2′-dimethyl-[1,1′-biphenyl]-3-yl)methoxy)-2-methoxybenzyl)amino)-3-hydroxy-2-methylpropanoic Acid] the figure was 0.21 to 10 nM; with `COc1cc(OCc2cccc(-c3cccc(OCCCN4CC[C@@H](O)C4)c3C)c2C)c(Cl)cc1CN[C@](C)(CO)C(=O)O` [Example 3034, (2R)-2-((5-chloro-4-((3′-(3-((R)-3-hydroxypyrrolidin-1-yl)propoxy)-2,2′-dimethyl-[1,1′-biphenyl]-3-yl)methoxy)-2-methoxybenzyl)amino)-3-hydroxy-2-methylpropanoic Acid], 0.21 to 10 nM; with `COc1cc(OCc2cccc(-c3cccc(OCCCN4CC[C@@H](O)C4)c3C)c2C)c(Cl)cc1CN[C@@H](CO)C(=O)O` [Example 3035, (2S)-2-((5-chloro-4-((3′-(3-((R)-3-hydroxypyrrolidin-1-yl)propoxy)-2,2′-dimethyl-[1,1′-biphenyl]-3-yl)methoxy)-2-methoxybenzyl)amino)-3-hydroxypropanoic Acid], 0.21 to 10 nM. Consider `COc1cc(OCc2cccc(-c3cccc(OCCCN4CC[C@@H](O)C4)c3C)c2C)c(Cl)cc1CN1CCCC[C@H]1C(=O)O` [Example 3036, (2S)-1-(5-chloro-4-((3′-(3-((R)-3-hydroxypyrrolidin-1-yl)propoxy)-2,2′-dimethyl-[1,1′-biphenyl]-3-yl)methoxy)-2-methoxybenzyl)piperidine-2-carboxylic Acid], for which the IC50 (value given as range class) was 0.21 to 10 nM.

For `Cc1c(COc2cc(OCc3cncc(C#N)c3)c(CN[C@@](C)(CO)C(=O)O)cc2Cl)cccc1-c1cccc(OCCCN2CCC(O)(c3ccccc3)C2)c1C` (stereo partly drawn) [Example 3037, (2S)-2-((5-chloro-2-((5-cyanopyridin-3-yl)methoxy)-4-((3′-(3-(3-hydroxy-3-phenylpyrrolidin-1-yl)propoxy)-2,2′-dimethyl-[1,1′-biphenyl]-3-yl)methoxy)benzyl)amino)-3-hydroxy-2-methylpropanoic Acid], the IC50 (value given as range class) fell in the range of 0.21 to 10 nM. Still for that read-out and setting: with `Cc1c(COc2cc(OCc3cncc(C#N)c3)c(CN[C@](C)(CO)C(=O)O)cc2Cl)cccc1-c1cccc(OCCCN2CCC(O)(c3ccccc3)C2)c1C` (stereo partly drawn) [Example 3038, (2R)-2-((5-chloro-2-((5-cyanopyridin-3-yl)methoxy)-4-((3′-(3-(3-hydroxy-3-phenylpyrrolidin-1-yl)propoxy)-2,2′-dimethyl-[1,1′-biphenyl]-3-yl)methoxy)benzyl)amino)-3-hydroxy-2-methylpropanoic Acid] the figure was 0.21 to 10 nM; with `Cc1c(COc2cc(OCc3cncc(C#N)c3)c(CN[C@@H](CO)C(=O)O)cc2Cl)cccc1-c1cccc(OCCCN2CCC(O)(c3ccccc3)C2)c1C` (stereo partly drawn) [Example 3039, (2S)-2-((5-chloro-2-((5-cyanopyridin-3-yl)methoxy)-4-((3′-(3-(3-hydroxy-3-phenylpyrrolidin-1-yl)propoxy)-2,2′-dimethyl-[1,1′-biphenyl]-3-yl)methoxy)benzyl)amino)-3-hydroxypropanoic Acid], 0.21 to 10 nM. The same measure, in the same setting: with `Cc1c(COc2cc(OCc3cncc(C#N)c3)c(CN3CCCC[C@H]3C(=O)O)cc2Cl)cccc1-c1cccc(OCCCN2CCC(O)(c3ccccc3)C2)c1C` (stereo partly drawn) [Example 3040, (2S)-1-(5-chloro-2-((5-cyanopyridin-3-yl)methoxy)-4-((3′-(3-(3-hydroxy-3-phenylpyrrolidin-1-yl)propoxy)-2,2′-dimethyl-[1,1′-biphenyl]-3-yl)methoxy)benzyl)piperidine-2-carboxylic Acid] the figure was 0.21 to 10 nM; with `Cc1c(COc2cc(OCc3cncc(C#N)c3)c(CN[C@@](C)(CO)C(=O)O)cc2Cl)cccc1-c1ccc2c(c1C)OCCO2` [Example 3041, (2S)-2-((5-chloro-2-((5-cyanopyridin-3-yl)methoxy)-4-((2-methyl-3-(5-methyl-2,3-dihydrobenzo[b][1,4]dioxin-6-yl)benzyl)oxy)benzyl)amino)-3-hydroxy-2-methylpropanoic Acid], 0.21 to 10 nM; with `Cc1c(COc2cc(OCc3cncc(C#N)c3)c(CN[C@](C)(CO)C(=O)O)cc2Cl)cccc1-c1ccc2c(c1C)OCCO2` [Example 3042, (2R)-2-((5-chloro-2-((5-cyanopyridin-3-yl)methoxy)-4-((2-methyl-3-(5-methyl-2,3-dihydrobenzo[b][1,4]dioxin-6-yl)benzyl)oxy)benzyl)amino)-3-hydroxy-2-methylpropanoic Acid], 0.21 to 10 nM. For the compound `Cc1c(COc2cc(OCc3cncc(C#N)c3)c(CN[C@@H](CO)C(=O)O)cc2Cl)cccc1-c1ccc2c(c1C)OCCO2` [Example 3043, (2S)-2-((5-chloro-2-((5-cyanopyridin-3-yl)methoxy)-4-((2-methyl-3-(5-methyl-2,3-dihydrobenzo[b][1,4]dioxin-6-yl)benzyl)oxy)benzyl)amino)-3-hydroxypropanoic Acid], the IC50 (numeric IC50) was found to be 3 nM.

On to `Cc1c(COc2cc(OCc3cncc(C#N)c3)c(CN3CCCC[C@H]3C(=O)O)cc2Cl)cccc1-c1ccc2c(c1C)OCCO2` [Example 3044, (2S)-1-(5-chloro-2-((5-cyanopyridin-3-yl)methoxy)-4-((2-methyl-3-(5-methyl-2,3-dihydrobenzo[b][1,4]dioxin-6-yl)benzyl)oxy)benzyl)piperidine-2-carboxylic Acid], for which the IC50 (value given as range class) was 0.21 to 10 nM.
